The source of these data is patent KR20190134073A, “셀레질린을 유효성분으로 포함하는 급성 골수성 백혈병의 예방 또는 치료용 약학 조성물” (충남대학교산학협력단, priority 2018, dated 2019).

Common to all, as to type: cell-based
In assay [1] the test system is KG-1α cells (refractory or relapsed acute myeloid leukemia cells) [불응성 또는 재발성 급성 골수성 백혈병 세포(KG-1α)]. The assay is described as follows: Cell viability (CCK-8) in refractory/relapsed AML cells KG-1α. The following applies: for viability at 500 µM / viability at 1000 µM / viability at 2000 µM / viability at 4000 µM: Homo sapiens, KG-1, 24 h, read-out: cell viability; for cell killing effect: KG-1α, 0.5, 1, 2 and 4 mM, 24 h, in words.

In assay [2] the test system is K562 cells (chronic myeloid leukemia cells) [만성 골수성 백혈병 세포(K562)]. The assay is described as follows: Cell viability (CCK-8) in CML cells K562. The following applies: K562 vs U937 or KG-1α; 0.5, 1, 2 and 4 mM; 24 h; in words, not shown in Table 1.
The test system of assay [3] is U937 cells (acute myeloid leukemia cells) [급성 골수성 백혈병 세포(U937)]. As to the kind of experiment: cells. The following applies: for cell killing effect: acute leukemia cells (U937), 0.5, 1, 2 and 4 mM, 24 h, in words.
Assay [4] concerns KG-1α cells (refractory or relapsed acute myeloid leukemia cells) [불응성 또는 재발성 급성 골수성 백혈병 세포(KG-1α)]. As to the kind of experiment: Change of ATP production in KG-1α cells (ATPlite 1step kit). The following applies: 4 mM, 20 min, 37℃, control PBS, FIG. 3, in words. In general terms: In ATP-based viability assays light output follows the ATP content of the culture.
The test system is the same in assay [5]. As to the kind of experiment: Change of mitochondrial oxygen consumption rate in KG-1α cells. The following applies: 0, 0.5, 1, 2, 4 mM, 20 min, FIG. 2, in words.
The mark [6] stands for this setting: Homo sapiens, U-937, 24 h, read-out: cell viability.

Regarding `C#CCN(C)[C@H](C)Cc1ccccc1` [셀레질린, selegiline], in assay [1], the viability at 500 µM was found to be 93.1%, the viability at 1000 µM was found to be 86%, the viability at 2000 µM came to 63% and the viability at 4000 µM was 51.8%. For the same molecule, the cell killing effect entry in assay [1] is “세포 사멸 효과가 우수하게 나타남”. Also, the “cell killing effect in K562 compared with U937 or KG-1α” value in assay [2] is recorded as “만성 골수성 백혈병 세포(K562)에 대한 세포 사멸 효과 보다는 급성 골수성 백혈병 세포(U937) 또는 불응성 또는 재발성 급성 골수성 백혈병 세포(KG-1α)에 대한 세포 사멸 효과가 우수하였다”. Moreover, in assay [3], the cell killing effect entry is listed as “세포 사멸 효과를 모두 나타내는 것”. Also, in assay [4], the ATP production entry is on record as “ATP 생성이 감소됨”. Moreover, the oxygen consumption rate result in assay [5] is “산소 소모율이 농도 의존적으로 감소함”.
As for `Nc1ccn([C@@H]2O[C@H](CO)[C@@H](O)[C@@H]2O)c(=O)n1` [시타라빈], in assay [1], the viability at 500 µM was 95.2%, the viability at 1000 µM was 96.9%, the viability at 2000 µM was 97.7% and the viability at 4000 µM stood at 95.3%. The cell killing effect entry in assay [1] is listed as “세포 사멸 효과를 나타내지 않은”. Besides, in assay [3] (setting [6]), the viability at 500 µM was determined as 45.3%, the viability at 1000 µM amounted to 43.9%, the viability at 2000 µM was found to be 40.9% and the viability at 4000 µM worked out at 40.7%. Besides, the cell killing effect result in assay [3] is listed as “세포 사멸 효과는 우수하였으나”.

One may read the viability as a read-out of living cells in per cent, often relative to untreated cells.
